Literature values, collected in patent publication US7645459B2, “Dosage forms of bisphosphonates” (The Procter & Gamble Company, priority 2004, dated 2010).

Conditions: administration within 30 minutes of a meal

## O=P(O)(O)C(O)(Cc1cccnc1)P(=O)(O)O [risedronate, 1-hydroxy-2-(3-pyridinyl)-ethylidene-1,1-bisphosphonic acid]
  reduction of the amount absorbed compared to administration in the fasting state: 50%
